Test results taken from patent US20220347146A1, “CANCER TREATMENT” (AXELIA ONCOLOGY PTY LTD, priority 2019, published 2022).

What was measured:
EMT6.5 cells = assay: EMT6.5 orthotopic mammary tumour model, i.v. therapy; assay type: in vivo, mouse
Experimental: Balb/c mice (n=12) were implanted orthotopically with 100,000 EMT6.5 cells into the 4th inguinal mammary gland and established tumours monitored by calliper measurement. When tumours were ˜200 mm^3 the mice were randomized to either one of two therapeutic arms (n=6 per arm); 1) compound A108 (10 μg, per mouse), or 2) Vehicle (saline) control. Therapy was administered intravenously to tumour bearing mice in three doses, three days apart. All mice completed therapy and were culled 21 days after tumour implant. The primary tumours, lungs and spleens were recovered and weighed. Lungs were analysed by real time quantitative PCR (RTQ-PCR) for evaluation of metastatic burden. Body weight was measured throughout the experiment.

[1] = cited from earlier work; for IL-10 and Tregs / anti-tumour activity: subcutaneous or intraperitoneal administration (Yamazaki et al. 2011)

severe weight loss (EMT6.5 cells; 10 μg per mouse i.v., three doses)	Compound	body weight on initial therapy (EMT6.5 cells; 10 μg per mouse i.v., three doses three days apart, data not shown)	reversibility of weight loss (EMT6.5 cells; following cessation of therapy)	myeloid derived suppressor cells ([1]; intravenous administration (Maruyama et al. 2015))	IL-10 and Tregs [1]	anti-tumour activity [1]
No severe weight loss was observed	CCCCCCCCCCCCCCCC(=O)OC[C@H](CSC[C@H](N)C(=O)N[C@@H](CO)C(=O)NCCOCCOCCOCCOCCOCCOCCOCCOCCOCCOCCOCCOCCOCCOCCOCCOCCOCCOCCOCCOCCOCCOCCOCCOCCOCCOCCOCCOCCC(=O)NCC(N)=O)OC(=O)CCCCCCCCCCCCCCC [A108]	induced an acute weight loss	reversible following cessation of therapy			
	Pam2CysSK4			promotes myeloid derived suppressor cells	induce IL-10 and Tregs	no anti-tumour activity
	MALP2				induce IL-10 and Tregs	no anti-tumour activity
